The values below come from patent US11466016B2, “Pharmaceutical compounds” (priority 2018, dated 2022).

Where a name gives a salt, the structure may show the parent alone.

One assay relates to pERK in HCC827 cells. In words: Cellular pERK Inhibition Assay (phospho-p44/42 MAPK sandwich ELISA). Type of assay: cell-based. The settings on record: at 1 μM. The method, then: Cellular pERK Inhibition Assay
HCC827 cells (ATCC, Manassas, USA) were seeded into 96-well plates at a density of 1×10^5 cells/well in RPMI medium supplemented with 10% FBS and incubated 24 h. Compounds were diluted first in DMSO and then into serum-free medium, before being added to cells in triplicate to give a final concentration of 0.1% DMSO. Plates were incubated at 37° C. for 0.5 hours in a humidified atmosphere of 5% CO2 in air.
Following compound treatment, medium was removed and cells were lysed by adding 50 μL of lysis buffer (Cell Signalling Technology, Beverly, USA) to each well. Plates were then incubated at room temperature for 25 minutes with shaking. pERK levels were measured in lysates using the PathScan® phospho-p44/42 MAPK (Thr202/Tyr204) sandwich ELISA (Cell Signalling Technology, Beverly, USA) as per kit instructions. Briefly, 50 μL of cell lysate was added to 50 μL of ELISA sample diluent in a 96-well ELISA plate and incubated overnight at 4° C. Following washing, 100 μL of detection antibody was added per well and the plates incubated for 1 hour at 37° C. […] Plates were read at 450 nm on a SpectraMax Gemini reader (Molecular Devices, Uckfield, UK).
The average signal from blank wells (no cells added) was subtracted from the signals from each sample well. Levels of pERK were then expressed as “percent of control”, using DMSO treated samples as control. […]
In general terms: ELISA stands for enzyme-linked immunosorbent assay.
For `COc1cc2c(Cl)c(-c3c[nH]c4nc(N5[C@@H]6CC[C@H]5C[C@@H](N)C6)cnc34)ccc2nc1C` [Example 42, endo-8-[7-(5-chloro-3-methoxy-2-methylquinolin-6-yl)-5H-pyrrolo[2,3-b]pyrazin-3-yl]-8-azabicyclo[3.2.1]octan-3-amine], the “Cellular pERK assay (percent at stated concentration)” value is 24% at 1 μM.

Staying with this assay, now noted: at 10 uM.
Consider `COc1ccc2ccc(-c3c[nH]c4nc(N5[C@@H]6CC[C@H]5C[C@@H](N)C6)cnc34)c(Cl)c2n1` [Example 27, endo-8-[7-(8-chloro-2-methoxyquinolin-7-yl)-5H-pyrrolo[2,3-b]pyrazin-3-yl]-8-azabicyclo[3.2.1]octan-3-amine, hydrochloride salt], for which the “Cellular pERK assay (percent at stated concentration)” value is 53% at 10 uM.

In a further assay the target is SHP2 (Homo sapiens (Human), UniProt Q06124). The experiment in a line: SHP2 Biochemical Assay (DiFMUP conversion, pIRS1 activating peptide).
Sequence of SHP2 (Q06124 whole entry): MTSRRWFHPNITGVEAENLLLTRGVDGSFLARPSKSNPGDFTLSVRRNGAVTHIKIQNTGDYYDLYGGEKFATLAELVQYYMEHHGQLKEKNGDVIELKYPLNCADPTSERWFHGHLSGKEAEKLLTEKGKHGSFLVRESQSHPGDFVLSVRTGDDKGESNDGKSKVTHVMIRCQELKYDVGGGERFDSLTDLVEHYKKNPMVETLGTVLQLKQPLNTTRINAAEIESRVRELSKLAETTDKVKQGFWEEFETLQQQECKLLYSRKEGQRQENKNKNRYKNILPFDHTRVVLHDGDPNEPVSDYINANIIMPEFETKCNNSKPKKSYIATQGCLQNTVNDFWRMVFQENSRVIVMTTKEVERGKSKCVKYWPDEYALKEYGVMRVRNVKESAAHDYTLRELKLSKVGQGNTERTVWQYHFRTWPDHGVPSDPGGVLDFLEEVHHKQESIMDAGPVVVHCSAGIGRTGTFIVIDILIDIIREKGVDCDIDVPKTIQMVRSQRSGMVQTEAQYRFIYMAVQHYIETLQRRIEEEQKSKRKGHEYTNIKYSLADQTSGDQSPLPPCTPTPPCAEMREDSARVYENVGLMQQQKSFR
Details: not given
Usually IC50 stands for the concentration at which inhibition is half-maximal. `N[C@H]1C[C@H]2CC[C@@H](C1)N2c1cnc2c(-c3ccc4nc(C5CCOC5)sc4c3Cl)c[nH]c2n1` (stereo partly drawn) [Example 39, endo-8-{7-[7-chloro-2-(oxolan-3-yl)-1,3-benzothiazol-6-yl]-5H-pyrrolo[2,3-b]pyrazin-3-yl}-8-azabicyclo[3.2.1]octan-3-amine, dihydrochloride salt]: the IC50 came out at 6.9 nM.

Regarding `COc1cnc2ccc(-c3c[nH]c4nc(N5[C@H]6CC[C@@H]5[C@@H](F)[C@@H](N)C6)cnc34)c(Cl)c2n1` [Example 106, (1R,2S,3S,5S)-8-[7-(5-chloro-3-methoxyquinoxalin-6-yl)-5H-pyrrolo[2,3-b]pyrazin-3-yl]-2-fluoro-8-azabicyclo[3.2.1]octan-3-amine, hydrochloride], 22 nM corresponded to half-maximal inhibition (IC50).

The same assay, now with this note: DiFMUP substrate, 0.25 μM pIRS1 peptide, 30 min pre-incubation; average where more than one data point; read-out: SHP2 (IC50).
Regarding `COc1cc2c(Cl)c(-c3c[nH]c4nc(N5[C@@H]6CC[C@H]5C[C@@H](N)C6)cnc34)ccc2nc1C` [Example 42, endo-8-[7-(5-chloro-3-methoxy-2-methylquinolin-6-yl)-5H-pyrrolo[2,3-b]pyrazin-3-yl]-8-azabicyclo[3.2.1]octan-3-amine], the 50% inhibitory concentration (IC50) stood at 17 nM.

As to `COc1ccc2ccc(-c3c[nH]c4nc(N5[C@@H]6CC[C@H]5C[C@@H](N)C6)cnc34)c(Cl)c2n1` [Example 27, endo-8-[7-(8-chloro-2-methoxyquinolin-7-yl)-5H-pyrrolo[2,3-b]pyrazin-3-yl]-8-azabicyclo[3.2.1]octan-3-amine, hydrochloride salt], the 50% inhibitory concentration (IC50) worked out at 17 nM.

With `Cn1nc2ccc(-c3c[nH]c4nc(N5[C@@H]6CC[C@H]5C[C@@H](N)C6)cnc34)c(Cl)c2c1CC#N` [Example 61, 2-(5-{3-[endo-3-amino-8-azabicyclo[3.2.1]octan-8-yl]-5H-pyrrolo[2,3-b]pyrazin-7-yl}-4-chloro-2-methyl-2H-indazol-3-yl)acetonitrile], the IC50 was found to be 130 nM.

Take `Cn1cc2c(Cl)c(-c3n[nH]c4nc(N5[C@H]6CC[C@@H]5[C@@H](F)[C@@H](N)C6)c(CO)nc34)ccc2n1` [Example 79, {6-[(1R,2S,3S,5S)-3-amino-2-fluoro-8-azabicyclo[3.2.1]octan-8-yl]-3-(4-chloro-2-methyl-2H-indazol-5-yl)-1H-pyrazolo[3,4-b]pyrazin-5-yl}methanol]: the half-inhibitory concentration (IC50) was 9.1 nM.

For `CNC(=O)Cn1cc2c(Cl)c(-c3c[nH]c4nc(N5[C@@H]6CC[C@H]5C[C@@H](N)C6)cnc34)ccc2n1` [Example 57, 2-(5-{3-[endo-3-amino-8-azabicyclo[3.2.1]octan-8-yl]-5H-pyrrolo[2,3-b]pyrazin-7-yl}-4-chloro-2H-indazol-2-yl)-N-methylacetamide], the 50% inhibitory concentration (IC50) is 23 nM.

With `Cn1ccc(Cn2cc3c(Cl)c(-c4c[nH]c5nc(N6[C@@H]7CC[C@H]6C[C@@H](N)C7)cnc45)ccc3n2)n1` [Example 70, endo-8-(7-{4-chloro-2-[(1-methyl-1H-pyrazol-3-yl)methyl]-2H-indazol-5-yl}-5H-pyrrolo[2,3-b]pyrazin-3-yl)-8-azabicyclo[3.2.1]octan-3-amine, trihydrochloride salt], the IC50 stood at 8.8 nM.

Regarding `Cc1nc2ccc(-c3n[nH]c4nc(N5[C@@H]6CC[C@H]5[C@@H](F)[C@@H](N)C6)c(CO)nc34)c(Cl)c2s1` [Example 140, {6-[(1S,2S,3S,5R)-3-amino-2-fluoro-8-azabicyclo[3.2.1]octan-8-yl]-3-(7-chloro-2-methyl-1,3-benzothiazol-6-yl)-1H-pyrazolo[3,4-b]pyrazin-5-yl}methanol], the IC50 is 7.7 nM.

Take `COCc1nc2ccc(-c3n[nH]c4nc(N5[C@H]6CC[C@@H]5[C@@H](F)[C@@H](N)C6)c(CO)nc34)c(Cl)c2s1` [Example 143, {6-[(1R,2S,3S,5S)-3-amino-2-fluoro-8-azabicyclo[3.2.1]octan-8-yl]-3-[7-chloro-2-(methoxymethyl)-1,3-benzothiazol-6-yl]-1H-pyrazolo[3,4-b]pyrazin-5-yl}methanol]: the IC50 amounted to 6.1 nM.

Take `Cn1cc2c(Cl)c(-c3c[nH]c4nc(N5CCC6(CC5)CNC6)cnc34)ccc2n1` [Example 10, 7-[7-(4-chloro-2-methyl-2H-indazol-5-yl)-5H-pyrrolo[2,3-b]pyrazin-3-yl]-2,7-diazaspiro[3.5]nonane]: the IC50 was determined as 14 nM.

For the compound `CC(C)(O)Cn1cc2c(Cl)c(-c3c[nH]c4nc(N5[C@@H]6CC[C@H]5C[C@@H](N)C6)cnc34)ccc2n1` [Example 53, 1-(5-{3-[endo-3-amino-8-azabicyclo[3.2.1]octan-8-yl]-5H-pyrrolo[2,3-b]pyrazin-7-yl}-4-chloro-2H-indazol-2-yl)-2-methylpropan-2-ol], the half-maximal inhibitory concentration (IC50) turned out to be 29 nM.

Regarding `Cc1c(-c2n[nH]c3nc(N4[C@H]5CC[C@@H]4[C@@H](F)[C@@H](N)C5)c(CO)nc23)ccc2nn(C)c(Cl)c12` [Example 108, {6-[(1R,2S,3S,5S)-3-amino-2-fluoro-8-azabicyclo[3.2.1]octan-8-yl]-3-(3-chloro-2,4-dimethyl-2H-indazol-5-yl)-1H-pyrazolo[3,4-b]pyrazin-5-yl}methanol], the half-maximal inhibitory concentration (IC50) came out at 6.6 nM.

In the case of `CC(C)Oc1cnc2ccc(-c3n[nH]c4nc(N5[C@H]6CC[C@@H]5[C@@H](F)[C@@H](N)C6)c(CO)nc34)c(Cl)c2n1` [Example 144, {6-[(1R,2S,3S,5S)-3-amino-2-fluoro-8-azabicyclo[3.2.1]octan-8-yl]-3-[5-chloro-3-(propan-2-yloxy)quinoxalin-6-yl]-1H-pyrazolo[3,4-b]pyrazin-5-yl}methanol], the half-inhibitory concentration (IC50) stood at 28 nM.

Regarding `Cc1nc2c(-c3ccc4nn(C)cc4c3Cl)c[nH]c2nc1N1CCC(C)(CN)CC1` [Example 11, 1-{1-[7-(4-chloro-2-methyl-2H-indazol-5-yl)-2-methyl-5H-pyrrolo[2,3-b]pyrazin-3-yl]-4-methylpiperidin-4-yl]methanamine, dihydrochloride salt], the IC50 is 43 nM.

`Cn1nc2ccc(-c3n[nH]c4nc(N5[C@@H]6CCC[C@H]5CNC6)c(CO)nc34)c(Cl)c2c1Cl` [Example 125]: the IC50 turned out to be 7.1 nM.
